In PMC9379551, “Structure of cytosine transport protein CodB provides insight into nucleobase‐cation symporter 1 mechanism” (The EMBO Journal, 2022):

Experiments:
CodB [1] = molecular target: T1, CodB (Proteus vulgaris, UniProt A0A6G6SKI1); test: GFP thermostability assay titration (Kd); inhibition of 3H-cytosine uptake in cells; assay type: binding; set-up: CodB from P. vulgaris expressed as CodB-GFP fusion, detergent-solubilised membranes
CodB [2] = molecular target: T1, CodB; test: crystal structure at […] Å; GFP thermostability assay titration (Kd); sodium-dependent 3H-cytosine uptake in cells; assay type: binding; set-up: CodB from P. vulgaris expressed as CodB-GFP fusion (GFP-TS assay); cleaved with 3C protease for crystallisation

T1 sequence (A0A6G6SKI1 entry or part of it): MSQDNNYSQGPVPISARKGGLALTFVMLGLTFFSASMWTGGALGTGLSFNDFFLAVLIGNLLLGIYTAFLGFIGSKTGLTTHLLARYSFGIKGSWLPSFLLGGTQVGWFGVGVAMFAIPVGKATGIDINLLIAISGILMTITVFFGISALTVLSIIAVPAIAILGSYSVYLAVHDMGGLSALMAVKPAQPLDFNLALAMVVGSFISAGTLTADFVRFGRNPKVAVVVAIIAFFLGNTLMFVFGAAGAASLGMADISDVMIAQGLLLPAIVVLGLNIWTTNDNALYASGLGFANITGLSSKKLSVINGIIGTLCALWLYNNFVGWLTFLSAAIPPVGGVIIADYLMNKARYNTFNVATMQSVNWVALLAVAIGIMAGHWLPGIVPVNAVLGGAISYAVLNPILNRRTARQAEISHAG

Structure (SMILES)	Kd (CodB [1]) [µM]	Kd (CodB [2]) [µM]
Nc1nc(=O)[nH]cc1F [5-fluorocytosine]	285 ± 39	–
Nc1cc[nH]c(=O)n1 [cytosine]	–	51 ± 9
